Reference: ChEMBL document CHEMBL1201862, “PubChem BioAssay data set” (2004)
Structures can show the parent of a compound that is named as a salt.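 How tested: cells in 96-well plates exposed to compound for 48 hours at five concentrations. The concentration for 50% growth inhibition is given as GI50.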 Active and inactive are the calls of the source. Rule as the data show it: active = GI50 up to about 1.1 µM and inactive = higher.

Key:
Experiment in all cases: NCI-60 cell line screen, 48 h
[1] = tested on: SNB-75
[2] = tested on: NCI-H460
[3] = tested on: COLO 205
[4] = tested on: NCI-H23
[5] = tested on: NCI/ADR-RES
[6] = tested on: IGROV-1
[7] = tested on: T47D
[8] = tested on: HT-29
[9] = tested on: SK-MEL-28
[10] = tested on: ACHN
[11] = tested on: OVCAR-4
[12] = tested on: MOLT-4
[13] = tested on: OVCAR-5
[14] = tested on: HCT-15
[15] = tested on: KM-20L2
[16] = tested on: EKVX
[17] = tested on: HL-60
[18] = tested on: SNB-19
[19] = tested on: UACC-257
[20] = tested on: MDA-MB-435
[21] = tested on: MCF7
[22] = tested on: SF-295
[23] = tested on: DMS-114
[24] = tested on: PC-3
[25] = tested on: RXF 393
[26] = tested on: HCT-116
[27] = tested on: KM12
[28] = tested on: NCI-H522
[29] = tested on: HOP-62
[30] = tested on: SNB-78
[31] = tested on: NCI-H226
[32] = tested on: A498
[33] = tested on: CAKI-1
[34] = tested on: LXFL 529
[35] = tested on: Hs-578T
[36] = tested on: A549
[37] = tested on: RPMI-8226
[38] = tested on: SK-MEL-5
[39] = tested on: CCRF-CEM
[40] = tested on: Malme-3M
[41] = tested on: MDA-MB-231
[42] = tested on: SF-539
[43] = tested on: XF498
[44] = tested on: HOP-18
[45] = tested on: SN12C
[46] = tested on: DMS-273
[47] = tested on: RXF 631
[48] = tested on: OVCAR-3
[49] = tested on: M19-MEL
[50] = tested on: K562
[51] = tested on: HOP-92
[52] = tested on: SF-268
[53] = tested on: UACC-62
[54] = tested on: M14
[55] = tested on: LOX IMVI
[56] = tested on: SK-MEL-2
[57] = tested on: DLD-1
[58] = tested on: TK-10
[59] = tested on: SR
[60] = tested on: UO-31
[61] = tested on: SK-OV-3
[62] = tested on: SW-620
[63] = tested on: OVCAR-8
[64] = tested on: HCC 2998
[65] = tested on: 786-0
[66] = tested on: U-251

CC[C@@]1(O)C(=O)OCc2c1cc1n(c2=O)Cc2cc3c(CN(C)C)c(O)ccc3nc2-1 [TOPOTECAN HYDROCHLORIDE]
GI50 [1]: 0.0215 µM (active) | GI50 [2]: 0.0163 µM (active) | GI50 [3]: 0.293 µM (active) | GI50 [4]: 0.0217 µM (active) | GI50 [5]: 0.193 µM (active) | GI50 [6]: 0.141 µM (active) | GI50 [7]: 0.00571 µM (active) | GI50 [8]: 0.132 µM (active) | GI50 [9]: 0.239 µM (active) | GI50 [10]: 0.0237 µM (active) | GI50 [11]: 0.412 µM (active) | GI50 [12]: 0.0125 µM (active) | GI50 [13]: 0.121 µM (active) | GI50 [14]: 0.395 µM | GI50 [15]: 0.146 µM (active) | GI50 [16]: 0.333 µM (active) | GI50 [17]: 0.0268 µM (active) | GI50 [18]: 0.0179 µM (active) | GI50 [19]: 0.0834 µM (active) | GI50 [20]: 0.159 µM (active) | GI50 [21]: 0.0149 µM (active) | GI50 [22]: 0.0148 µM (active) | GI50 [23]: 0.0187 µM (active) | GI50 [24]: 0.0771 µM (active) | GI50 [25]: 0.0395 µM (active) | GI50 [26]: 0.0408 µM (active) | GI50 [27]: 0.518 µM (active) | GI50 [28]: 0.0306 µM (active) | GI50 [29]: 0.0125 µM (active) | GI50 [30]: 4.71 µM (inactive) | GI50 [31]: 0.0225 µM (active) | GI50 [32]: 0.11 µM (active) | GI50 [33]: 0.015 µM (active) | GI50 [34]: 2.29 µM (inactive) | GI50 [35]: 1.1 µM (active) | GI50 [36]: 0.0475 µM (active) | GI50 [37]: 0.276 µM (active) | GI50 [38]: 0.0325 µM (active) | GI50 [39]: 0.0125 µM (active) | GI50 [40]: 0.188 µM (active) | GI50 [41]: 2.25 µM (inactive) | GI50 [42]: 0.0168 µM (active) | GI50 [43]: 0.0387 µM (active) | GI50 [44]: 0.254 µM (active) | GI50 [45]: 0.0214 µM (active) | GI50 [46]: 0.0191 µM (active) | GI50 [47]: 0.375 µM (active) | GI50 [48]: 0.24 µM (active) | GI50 [49]: 0.0649 µM (active) | GI50 [50]: 0.0592 µM (active) | GI50 [51]: 0.0318 µM (active) | GI50 [52]: 0.0147 µM (active)

COc1ccc2c(c1OC)C(=O)c1cnccc1C2=O
GI50 [1]: > 100 µM (inactive) | GI50 [2]: > 100 µM (inactive) | GI50 [3]: > 100 µM (inactive) | GI50 [4]: > 100 µM (inactive) | GI50 [53]: > 100 µM (inactive) | GI50 [6]: > 100 µM (inactive) | GI50 [8]: > 100 µM (inactive) | GI50 [9]: > 100 µM (inactive) | GI50 [54]: > 100 µM (inactive) | GI50 [10]: > 100 µM (inactive) | GI50 [55]: > 100 µM (inactive) | GI50 [11]: > 100 µM (inactive) | GI50 [12]: > 100 µM (inactive) | GI50 [13]: > 100 µM (inactive) | GI50 [14]: > 100 µM | GI50 [56]: > 100 µM (inactive) | GI50 [15]: > 100 µM (inactive) | GI50 [16]: > 100 µM (inactive) | GI50 [17]: > 100 µM (inactive) | GI50 [57]: > 100 µM (inactive) | GI50 [18]: > 100 µM (inactive) | GI50 [19]: > 100 µM (inactive) | GI50 [22]: > 100 µM (inactive) | GI50 [23]: > 100 µM (inactive) | GI50 [25]: 24.9 µM (inactive) | GI50 [26]: > 100 µM (inactive) | GI50 [27]: > 100 µM (inactive) | GI50 [58]: > 100 µM (inactive) | GI50 [28]: > 100 µM (inactive) | GI50 [29]: > 100 µM (inactive) | GI50 [30]: > 100 µM (inactive) | GI50 [31]: > 100 µM (inactive) | GI50 [59]: > 100 µM (inactive) | GI50 [33]: > 100 µM (inactive) | GI50 [34]: > 100 µM (inactive) | GI50 [60]: > 100 µM (inactive) | GI50 [36]: > 100 µM (inactive) | GI50 [37]: > 100 µM (inactive) | GI50 [38]: > 100 µM (inactive) | GI50 [39]: > 100 µM (inactive) | GI50 [61]: > 100 µM (inactive) | GI50 [40]: > 100 µM (inactive) | GI50 [62]: > 100 µM (inactive) | GI50 [42]: > 100 µM (inactive) | GI50 [43]: > 100 µM (inactive) | GI50 [44]: > 100 µM (inactive) | GI50 [45]: > 100 µM (inactive) | GI50 [46]: > 100 µM (inactive) | GI50 [47]: > 100 µM (inactive) | GI50 [63]: > 100 µM (inactive) | GI50 [48]: > 100 µM (inactive) | GI50 [49]: > 100 µM (inactive) | GI50 [50]: > 100 µM (inactive) | GI50 [64]: > 100 µM (inactive) | GI50 [65]: > 100 µM (inactive) | GI50 [51]: > 100 µM (inactive) | GI50 [66]: > 100 µM (inactive)
